Experimental data as given in patent US10844077B2, “Thiazolyl-containing compounds for treating proliferative diseases” (Dana-Farber Cancer Institute, Inc., priority 2014, dated 2020).

Key:
Type in all cases: binding
broad panel of kinases [1] = target: broad panel of kinases (Homo sapiens, UniProt O00444); conditions: PLK4; 1 μM
broad panel of kinases [2] = target: broad panel of kinases (Homo sapiens, UniProt O00506); conditions: YSK1; 1 μM
broad panel of kinases [3] = target: broad panel of kinases (Homo sapiens, UniProt O14920); conditions: IKK-beta; 1 μM
broad panel of kinases [4] = target: broad panel of kinases (Homo sapiens, UniProt O15111); conditions: IKK-alpha; 1 μM
broad panel of kinases [5] = target: broad panel of kinases (Homo sapiens, UniProt O15530); conditions: PDPK1; 1 μM
broad panel of kinases [6] = target: broad panel of kinases (Homo sapiens, UniProt O75385); conditions: ULK1; 1 μM
broad panel of kinases [7] = target: broad panel of kinases (Homo sapiens, UniProt P10721, D816V); conditions: KIT(D816V); 1 μM
Sequence of broad panel of kinases (Homo sapiens, UniProt P10721, D816V) (P10721 26-976 D816V limits assumed): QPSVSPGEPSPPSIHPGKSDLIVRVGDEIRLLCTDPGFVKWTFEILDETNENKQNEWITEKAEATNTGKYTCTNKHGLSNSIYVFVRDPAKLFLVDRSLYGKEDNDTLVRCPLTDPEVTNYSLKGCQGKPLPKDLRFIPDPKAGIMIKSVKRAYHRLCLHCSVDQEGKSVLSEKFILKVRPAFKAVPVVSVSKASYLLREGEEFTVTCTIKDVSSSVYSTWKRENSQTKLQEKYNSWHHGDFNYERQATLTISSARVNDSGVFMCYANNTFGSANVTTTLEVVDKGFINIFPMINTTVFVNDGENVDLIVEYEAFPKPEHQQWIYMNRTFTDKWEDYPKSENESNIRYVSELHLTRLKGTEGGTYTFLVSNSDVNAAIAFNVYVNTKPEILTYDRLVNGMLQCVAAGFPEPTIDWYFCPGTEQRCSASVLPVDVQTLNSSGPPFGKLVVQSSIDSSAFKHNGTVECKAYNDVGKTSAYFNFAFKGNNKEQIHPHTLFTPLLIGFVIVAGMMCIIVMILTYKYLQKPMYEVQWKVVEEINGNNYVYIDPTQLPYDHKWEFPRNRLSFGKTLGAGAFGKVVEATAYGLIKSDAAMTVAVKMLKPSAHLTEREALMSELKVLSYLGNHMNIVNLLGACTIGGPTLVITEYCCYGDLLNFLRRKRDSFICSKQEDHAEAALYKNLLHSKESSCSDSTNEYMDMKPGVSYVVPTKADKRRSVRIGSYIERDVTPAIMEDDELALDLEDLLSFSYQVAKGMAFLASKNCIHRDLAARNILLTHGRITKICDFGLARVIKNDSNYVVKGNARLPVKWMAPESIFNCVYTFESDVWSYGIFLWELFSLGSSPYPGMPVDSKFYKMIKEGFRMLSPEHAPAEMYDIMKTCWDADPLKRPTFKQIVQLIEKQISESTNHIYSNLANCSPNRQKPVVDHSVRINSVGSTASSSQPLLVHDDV

broad panel of kinases [8] = target: broad panel of kinases (Homo sapiens, UniProt P10721, V559D/V654A); conditions: KIT(V559D, V654A); 1 μM
Sequence of broad panel of kinases (Homo sapiens, UniProt P10721, V559D/V654A) (P10721 26-976 V559D/V654A limits assumed): as the sequence (P10721 26-976 D816V limits assumed) above, with V534D, V629A, V791D counted along it

broad panel of kinases [9] = target: broad panel of kinases (Homo sapiens, UniProt P19784); conditions: CSNK2A2; 1 μM
broad panel of kinases [10] = target: broad panel of kinases (Homo sapiens, UniProt P22694); conditions: PKAC-beta; 1 μM
broad panel of kinases [11] = target: broad panel of kinases (Homo sapiens, UniProt P24723); conditions: PRKCH; 1 μM
broad panel of kinases [12] = target: broad panel of kinases (Homo sapiens, UniProt P29376); conditions: LTK; 1 μM
broad panel of kinases [13] = target: broad panel of kinases (Homo sapiens, UniProt P36896); conditions: ACVR1B; 1 μM
Sequence of broad panel of kinases (Homo sapiens, UniProt P36896) (P36896 24-505 limits assumed): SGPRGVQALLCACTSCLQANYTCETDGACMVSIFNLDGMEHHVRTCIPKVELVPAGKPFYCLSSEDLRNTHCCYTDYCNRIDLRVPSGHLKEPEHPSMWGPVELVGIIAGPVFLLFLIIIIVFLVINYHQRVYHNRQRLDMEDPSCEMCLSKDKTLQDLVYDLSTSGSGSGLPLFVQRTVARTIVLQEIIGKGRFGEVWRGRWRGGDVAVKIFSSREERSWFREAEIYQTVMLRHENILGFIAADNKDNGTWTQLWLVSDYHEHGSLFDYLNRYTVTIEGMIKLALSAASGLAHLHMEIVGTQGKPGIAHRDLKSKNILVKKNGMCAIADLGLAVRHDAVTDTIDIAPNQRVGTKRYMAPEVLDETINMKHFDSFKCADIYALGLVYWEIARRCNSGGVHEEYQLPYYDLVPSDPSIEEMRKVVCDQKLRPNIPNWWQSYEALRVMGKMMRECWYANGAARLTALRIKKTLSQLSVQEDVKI

broad panel of kinases [14] = target: broad panel of kinases (Homo sapiens, UniProt P36897); conditions: TGFBR1; 1 μM
Sequence of broad panel of kinases (Homo sapiens, UniProt P36897) (P36897 34-503 limits assumed): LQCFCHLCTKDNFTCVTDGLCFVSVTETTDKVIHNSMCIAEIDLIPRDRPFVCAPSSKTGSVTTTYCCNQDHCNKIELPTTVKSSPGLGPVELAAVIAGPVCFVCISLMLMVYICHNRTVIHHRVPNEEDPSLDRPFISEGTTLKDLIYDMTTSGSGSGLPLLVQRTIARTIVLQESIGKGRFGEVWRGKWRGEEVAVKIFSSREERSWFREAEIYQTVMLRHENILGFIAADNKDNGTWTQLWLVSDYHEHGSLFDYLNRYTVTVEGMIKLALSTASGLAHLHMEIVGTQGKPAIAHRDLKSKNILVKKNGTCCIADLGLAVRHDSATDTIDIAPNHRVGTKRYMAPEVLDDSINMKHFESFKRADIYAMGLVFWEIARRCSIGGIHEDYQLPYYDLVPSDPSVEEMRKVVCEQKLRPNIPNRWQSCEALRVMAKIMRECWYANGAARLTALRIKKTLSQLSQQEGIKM

broad panel of kinases [15] = target: broad panel of kinases (Homo sapiens, UniProt P42345); conditions: MTOR; 1 μM
broad panel of kinases [16] = target: broad panel of kinases (Homo sapiens, UniProt P42685); conditions: FRK; 1 μM
broad panel of kinases [17] = target: broad panel of kinases (Homo sapiens, UniProt P49761); conditions: CLK3; 1 μM
broad panel of kinases [18] = target: broad panel of kinases (Homo sapiens, UniProt P51956); conditions: NEK3; 1 μM
broad panel of kinases [19] = target: broad panel of kinases (Homo sapiens, UniProt P51957); conditions: NEK4; 1 μM
broad panel of kinases [20] = target: broad panel of kinases (Homo sapiens, UniProt P52564); conditions: MEK6; 1 μM
broad panel of kinases [21] = target: broad panel of kinases (Homo sapiens, UniProt P53350); conditions: PLK1; 1 μM
Sequence of broad panel of kinases (Homo sapiens, UniProt P53350) (P53350 2-603 limits assumed): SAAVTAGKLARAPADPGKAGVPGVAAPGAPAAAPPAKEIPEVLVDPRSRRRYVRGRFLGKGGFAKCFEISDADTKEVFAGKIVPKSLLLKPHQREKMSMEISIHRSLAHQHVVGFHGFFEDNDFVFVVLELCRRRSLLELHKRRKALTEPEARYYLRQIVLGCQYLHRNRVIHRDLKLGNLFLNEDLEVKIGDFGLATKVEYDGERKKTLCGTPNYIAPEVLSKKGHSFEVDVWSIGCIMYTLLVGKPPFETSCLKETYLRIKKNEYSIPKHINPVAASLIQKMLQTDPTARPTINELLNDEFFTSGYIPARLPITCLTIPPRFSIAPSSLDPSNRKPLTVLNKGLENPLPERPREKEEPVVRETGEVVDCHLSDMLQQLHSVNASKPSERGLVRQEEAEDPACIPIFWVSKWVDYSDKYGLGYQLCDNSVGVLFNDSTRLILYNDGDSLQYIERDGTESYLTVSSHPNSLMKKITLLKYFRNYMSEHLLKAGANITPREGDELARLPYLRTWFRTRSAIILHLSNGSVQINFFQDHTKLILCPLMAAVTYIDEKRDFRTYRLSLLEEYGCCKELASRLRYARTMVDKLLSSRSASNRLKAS

broad panel of kinases [22] = target: broad panel of kinases (Homo sapiens, UniProt Q07912); conditions: TNK2; 1 μM
broad panel of kinases [23] = target: broad panel of kinases (Homo sapiens, UniProt Q13237); conditions: PRKG2; 1 μM
broad panel of kinases [24] = target: broad panel of kinases (Homo sapiens, UniProt Q13555); conditions: CAMK2G; 1 μM
broad panel of kinases [25] = target: broad panel of kinases (Homo sapiens, UniProt Q16539); conditions: p38-alpha; 1 μM
Sequence of broad panel of kinases (Homo sapiens, UniProt Q16539) (Q16539 2-360 limits assumed): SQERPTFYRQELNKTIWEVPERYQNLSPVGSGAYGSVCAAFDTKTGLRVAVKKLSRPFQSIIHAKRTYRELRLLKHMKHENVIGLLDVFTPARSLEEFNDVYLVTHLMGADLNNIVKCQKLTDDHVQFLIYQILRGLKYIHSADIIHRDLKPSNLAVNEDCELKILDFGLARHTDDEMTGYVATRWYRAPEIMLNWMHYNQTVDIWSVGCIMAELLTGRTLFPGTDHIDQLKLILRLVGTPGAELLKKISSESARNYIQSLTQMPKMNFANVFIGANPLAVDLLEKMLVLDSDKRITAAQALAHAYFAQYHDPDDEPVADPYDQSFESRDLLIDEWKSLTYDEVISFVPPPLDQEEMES

broad panel of kinases [26] = target: broad panel of kinases (Homo sapiens, UniProt Q52WX2); conditions: SBK1; 1 μM
broad panel of kinases [27] = target: broad panel of kinases (Homo sapiens, UniProt Q8IU85); conditions: CAMK1D; 1 μM
broad panel of kinases [28] = target: broad panel of kinases (Homo sapiens, UniProt Q8IY84); conditions: NIM1; 1 μM
broad panel of kinases [29] = target: broad panel of kinases (Homo sapiens, UniProt Q8WXR4); conditions: MYO3B; 1 μM
broad panel of kinases [30] = target: broad panel of kinases (Homo sapiens, UniProt Q92918); conditions: HPK1; 1 μM
broad panel of kinases [31] = target: broad panel of kinases (Homo sapiens, UniProt Q99683); conditions: ASK1; 1 μM
broad panel of kinases [32] = target: broad panel of kinases (Homo sapiens, UniProt Q9BUB5); conditions: MKNK1; 1 μM
broad panel of kinases [33] = target: broad panel of kinases (Homo sapiens, UniProt Q9BWU1); conditions: CDK11; 1 μM
broad panel of kinases [34] = target: broad panel of kinases (Homo sapiens, UniProt Q9BYP7); conditions: WNK3; 1 μM
broad panel of kinases [35] = target: broad panel of kinases (Homo sapiens, UniProt Q9H2G2); conditions: SLK; 1 μM
broad panel of kinases [36] = target: broad panel of kinases (Homo sapiens, UniProt Q9NWZ3); conditions: IRAK4; 1 μM
broad panel of kinases [37] = target: broad panel of kinases (Homo sapiens, UniProt Q9UBF8); conditions: PIK4CB; 1 μM
Sequence of broad panel of kinases (Homo sapiens, UniProt Q9UBF8) (Q9UBF8 2-816 limits assumed): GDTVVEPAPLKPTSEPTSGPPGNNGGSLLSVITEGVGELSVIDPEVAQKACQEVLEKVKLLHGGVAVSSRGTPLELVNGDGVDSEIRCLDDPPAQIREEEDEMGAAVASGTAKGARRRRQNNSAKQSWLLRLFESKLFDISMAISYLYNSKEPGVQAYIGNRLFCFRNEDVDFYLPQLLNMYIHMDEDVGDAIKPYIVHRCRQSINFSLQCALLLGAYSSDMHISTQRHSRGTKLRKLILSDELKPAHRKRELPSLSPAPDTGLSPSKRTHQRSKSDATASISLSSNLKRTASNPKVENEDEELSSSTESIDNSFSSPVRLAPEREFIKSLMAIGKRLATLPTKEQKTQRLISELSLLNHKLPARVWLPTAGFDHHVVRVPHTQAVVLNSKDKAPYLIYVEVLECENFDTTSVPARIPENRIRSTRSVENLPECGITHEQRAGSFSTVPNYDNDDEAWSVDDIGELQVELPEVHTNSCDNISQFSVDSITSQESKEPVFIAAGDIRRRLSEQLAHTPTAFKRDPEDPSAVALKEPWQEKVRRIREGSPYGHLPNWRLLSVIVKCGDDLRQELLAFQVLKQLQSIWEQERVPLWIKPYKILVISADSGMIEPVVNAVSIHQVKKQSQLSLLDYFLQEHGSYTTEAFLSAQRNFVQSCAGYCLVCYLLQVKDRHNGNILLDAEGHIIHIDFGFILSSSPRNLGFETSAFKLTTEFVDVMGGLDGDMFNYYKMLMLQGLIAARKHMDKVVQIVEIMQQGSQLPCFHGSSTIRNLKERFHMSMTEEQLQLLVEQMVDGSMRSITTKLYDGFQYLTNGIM

broad panel of kinases [38] = target: broad panel of kinases (Mycobacterium tuberculosis, UniProt P9WI81)
Sequence of broad panel of kinases (Mycobacterium tuberculosis, UniProt P9WI81) (P9WI81 2-626 limits assumed): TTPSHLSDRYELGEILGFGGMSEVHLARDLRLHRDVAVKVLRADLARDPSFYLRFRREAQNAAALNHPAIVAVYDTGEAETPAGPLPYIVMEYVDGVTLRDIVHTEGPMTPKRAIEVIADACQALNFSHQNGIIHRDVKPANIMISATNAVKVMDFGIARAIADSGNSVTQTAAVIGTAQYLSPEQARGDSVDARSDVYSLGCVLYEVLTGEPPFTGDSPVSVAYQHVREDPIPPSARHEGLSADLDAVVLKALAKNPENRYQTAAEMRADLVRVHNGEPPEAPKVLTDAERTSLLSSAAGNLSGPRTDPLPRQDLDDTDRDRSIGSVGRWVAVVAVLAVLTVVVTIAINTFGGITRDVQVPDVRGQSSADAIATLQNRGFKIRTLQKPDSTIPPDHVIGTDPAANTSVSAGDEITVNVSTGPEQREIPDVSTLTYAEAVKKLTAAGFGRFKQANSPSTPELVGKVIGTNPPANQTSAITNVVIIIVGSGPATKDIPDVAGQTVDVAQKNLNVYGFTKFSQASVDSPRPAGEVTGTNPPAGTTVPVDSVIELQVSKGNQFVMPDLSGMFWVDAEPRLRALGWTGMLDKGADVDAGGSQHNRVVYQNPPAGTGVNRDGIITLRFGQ

Structure (SMILES)	percent of control binding remaining (lower = stronger binding) (broad panel of kinases [1]) [%]	percent of control binding remaining (lower = stronger binding) (broad panel of kinases [2]) [%]	percent of control binding remaining (lower = stronger binding) (broad panel of kinases [3]) [%]	percent of control binding remaining (lower = stronger binding) (broad panel of kinases [4]) [%]	percent of control binding remaining (lower = stronger binding) (broad panel of kinases [5]) [%]	percent of control binding remaining (lower = stronger binding) (broad panel of kinases [6]) [%]	percent of control binding remaining (lower = stronger binding) (broad panel of kinases [7]) [%]	percent of control binding remaining (lower = stronger binding) (broad panel of kinases [8]) [%]	percent of control binding remaining (lower = stronger binding) (broad panel of kinases [9]) [%]	percent of control binding remaining (lower = stronger binding) (broad panel of kinases [10]) [%]	percent of control binding remaining (lower = stronger binding) (broad panel of kinases [11]) [%]	percent of control binding remaining (lower = stronger binding) (broad panel of kinases [12]) [%]	percent of control binding remaining (lower = stronger binding) (broad panel of kinases [13]) [%]	percent of control binding remaining (lower = stronger binding) (broad panel of kinases [14]) [%]	percent of control binding remaining (lower = stronger binding) (broad panel of kinases [15]) [%]	percent of control binding remaining (lower = stronger binding) (broad panel of kinases [16]) [%]	percent of control binding remaining (lower = stronger binding) (broad panel of kinases [17]) [%]	percent of control binding remaining (lower = stronger binding) (broad panel of kinases [18]) [%]	percent of control binding remaining (lower = stronger binding) (broad panel of kinases [19]) [%]	percent of control binding remaining (lower = stronger binding) (broad panel of kinases [20]) [%]	other results
C=CC(=O)N1CC[C@H](Nc2nccc(Nc3ncc(C(=O)Nc4c(C)cccc4C)s3)n2)C1 [Example I-3]	82	87	86	100	87	86	14	25	70	100	88	100	100	97	100	0.1	95	95	100	89	percent of control binding remaining (lower = stronger binding) (broad panel of kinases [21]): 83%; percent of control binding remaining (lower = stronger binding) (broad panel of kinases [22]): 43%; percent of control binding remaining (lower = stronger binding) (broad panel of kinases [23]): 91%; percent of control binding remaining (lower = stronger binding) (broad panel of kinases [24]): 97%; percent of control binding remaining (lower = stronger binding) (broad panel of kinases [25]): 0.2%; percent of control binding remaining (lower = stronger binding) (broad panel of kinases [26]): 58%; percent of control binding remaining (lower = stronger binding) (broad panel of kinases [27]): 90%; percent of control binding remaining (lower = stronger binding) (broad panel of kinases [28]): 84%; percent of control binding remaining (lower = stronger binding) (broad panel of kinases [29]): 86%; percent of control binding remaining (lower = stronger binding) (broad panel of kinases [30]): 61%; percent of control binding remaining (lower = stronger binding) (broad panel of kinases [31]): 91%; percent of control binding remaining (lower = stronger binding) (broad panel of kinases [32]): 100%; percent of control binding remaining (lower = stronger binding) (broad panel of kinases [33]): 83%; percent of control binding remaining (lower = stronger binding) (broad panel of kinases [34]): 100%; percent of control binding remaining (lower = stronger binding) (broad panel of kinases [35]): 94%; percent of control binding remaining (lower = stronger binding) (broad panel of kinases [36]): 96%; percent of control binding remaining (lower = stronger binding) (broad panel of kinases [37]): 36%; % change compared to control (broad panel of kinases [38]): 91%
C=CC(=O)N1CC[C@H](Nc2nc(CN3CCOCC3)cc(Nc3ncc(C(=O)Nc4c(C)cccc4C)s3)n2)C1 [Example I-2]	73	85	75	93	98	79	1.7	7.2	57	92	97	100	68	50	100	0.1	100	94	100	82	percent of control binding remaining (lower = stronger binding) (broad panel of kinases [21]): 92%; percent of control binding remaining (lower = stronger binding) (broad panel of kinases [22]): 31%; percent of control binding remaining (lower = stronger binding) (broad panel of kinases [23]): 99%; percent of control binding remaining (lower = stronger binding) (broad panel of kinases [24]): 91%; percent of control binding remaining (lower = stronger binding) (broad panel of kinases [25]): 0.1%; percent of control binding remaining (lower = stronger binding) (broad panel of kinases [26]): 54%; percent of control binding remaining (lower = stronger binding) (broad panel of kinases [27]): 100%; percent of control binding remaining (lower = stronger binding) (broad panel of kinases [28]): 93%; percent of control binding remaining (lower = stronger binding) (broad panel of kinases [29]): 93%; percent of control binding remaining (lower = stronger binding) (broad panel of kinases [30]): 51%; percent of control binding remaining (lower = stronger binding) (broad panel of kinases [31]): 96%; percent of control binding remaining (lower = stronger binding) (broad panel of kinases [32]): 100%; percent of control binding remaining (lower = stronger binding) (broad panel of kinases [33]): 98%; percent of control binding remaining (lower = stronger binding) (broad panel of kinases [34]): 100%; percent of control binding remaining (lower = stronger binding) (broad panel of kinases [35]): 96%; percent of control binding remaining (lower = stronger binding) (broad panel of kinases [36]): 76%; percent of control binding remaining (lower = stronger binding) (broad panel of kinases [37]): 100%; % change compared to control (broad panel of kinases [38]): 73%
